For experiment [1], the system named is lamp1-positive lysosomes in neurons. Briefly: intracellular lysosome size in neurons of aged mice (lamp1 and CatD immunostaining). Type of experiment: in vivo, mouse. Particulars: aged mice treated with apocynin compared to water. The source says:
Brain sections from 5 month and 20 month old female mice were immunostained with antibodies against lamp1 and parvalbumin (PV), chosen to allow lysosomes in individual neurons to be analyzed. In old versus young animals, lamp1-labeled lysosomes are larger in both PV neurons as well as surrounding pyramidal neurons. Lysosomes in PV neurons were quantified in 1 μm thick optical sections with ImageJ using Analyze Particles function; n=8 young, n=7 old. *p<0.001, Mann-Whitney Rank Sum test.
Mice were treated with apocynin in drinking water (initial dose 5 mg/kg and then ramping up to 100 mg/kg) beginning at 12 months old for 5 months. […]
An antigen retrieval method was performed on the sections for most antigens by heating in 10 mM citrate buffer (pH 6.0) for 10 minutes at 90° C. […] With HRP-conjugated secondary antibodies, fluorescence was developed with fluorescein or cyanine 3 TSA amplification systems. […]
Images were captured using Zeiss LSM 510 or LSM 810 multiphoton laser confocal microscopes. […] Images were then analyzed and processed using Metamorph or Fiji software. To quantify the clusters of p62-containing aggregates, images were taken for 6 hippocampal regions from three sections per mouse, with 4 mice for each group. Hippocampal regions were divided into different subregions, and p62 clusters were counted. […]

In experiment [2] the test system is p62-positive aggregates in hippocampus. Briefly: p62-positive aggregates in hippocampus of aging mice after long-term treatment in drinking water. Type of experiment: in vivo, mouse. Here is the method:
Female C57BL6 mice received apocynin (50 mg/kg) or C3 (1 mg/kg/day) in their water from 12-17 mos of age, then perfused. Fixed brain were sectioned, and immunostained for p62. Confocal images were analyzed for 6 hippocampi/three sections per mouse, 4 mice per group. To quantify the p62-containing aggregates, aggregates were individually circled in the depicted region by a blinded investigator, and aggregate areas measured using ImageJ. Areas covered by aggregates, and number of clusters, are shown. Mean±SEM, *p<0.05, ***p<0.001, Mann-Whitney Rank Sum test. Animal studies were approved by the Animal Care Program at the University of California, San Diego, and Vanderbilt University Medical Center and are in accordance with the PHS Guide for the Care and Use of Laboratory Animals, USDA Regulations, and the AVMA Panel on Euthanasia. Young (3 to 5 month) and old (17 to 27 month) C57BL/6 mice, Tam-Thy1-YFP-Crc, tdTomato or 24 month old GFAP/GFP transgenic mice (JAX, 010835) were used for experiments. Lines which have the Tam-Thy1-YFP-Cre express both the Cre recombinase and YFP under control of the Thy1 promoter, which drives expression in a majority of hippocampal and cortical excitatory neurons, but not inhibitory neurons. Tam-Thy1-YFP-Cre:Stat3flox/flox (TF) mice have been generated, and have also been crossed with the Rosa26-tdTomato reporter mouse line to produce Tam-Thy1-YFP-Cre:Stat3flox/flox:tdTom (TFTD) mice. These reporter mice will express tdTom fluorescence in response to tamoxifen. […] The sections were kept in 30% sucrose, 30% ethylene glycol, and 1% PVP-40 at −20° C. until they were ready to be processed for immunostaining. […] With HRP-conjugated secondary antibodies, fluorescence was developed with fluorescein or cyanine 3 TSA amplification systems. […] Images were then analyzed and processed using Metamorph or Fiji software. To quantify the clusters of p62-containing aggregates, images were taken for 6 hippocampal regions from three sections per mouse, with 4 mice for each group. […]

A further experiment addresses lysosomal v-ATPase (Homo sapiens, UniProt P27449). To be noted: direct inhibition of lysosome acidification; cited from earlier work.
The subject of the next experiment is mouse cortical cultures. Briefly: lysosome degradation of proteins in mouse cortical cultures exposed to IL-6. Type of experiment: cell-based. Here is the method:
Also, IL-6 can induce expression of inflammatory mediators, including TNFα, IL-6, IL-1β, Nox2 and Nox4, through both canonical pTyr-Stat3 transcription, and through noncanonical Stat3 NFκB transcription. Here, primary mouse cultures can be prepared on coverslip dishes as described and treated with IL-6 (10 ng/ml and 100 ng/ml) or a vehicle controls (media), daily for 4 days. Bafilomycin (100 nM) can be included in some dishes as a positive control for direct v-ATPase inhibition. Cultures can be fixed with 4% paraformaldehyde (PFA), and immunostained. Based on the data, accumulation of large lamp1 and p62-positive lysosomes in IL-6 and BAF treated cells can be observed. To then assess the role of redox effects on the v-ATPase, cultures can be co-treated with one of three antioxidants, TEMPOL (general radical scavenging), the C3 compound (catalytic superoxide dismutase, to reduce Nox-derived superoxide, regardless of isoform(s) which are contributing), and N-acetyl cysteine (to increase glutathione levels). When the v-ATPase is inhibited through its redox site, antioxidant treatment can prevent accumulation of undigested contents (p62, lamp1), and prevent enlargement of lysosomes. […]

A further experiment concerns Nox2, Nox4 and p22phox. Briefly: Nox induction in brain of mice injected with IL-6 (qRT-PCR, Western blot, immunostaining). Format: in vivo, mouse. Particulars: 4 month and 24 month-old C57Bl/6 mice, IL-6 5 μg/kg on two consecutive days. Here is the method: These are the first data showing that inhibiting Nox activity can improve lysosome function in brain in vivo. […] Based on the observation herein that IL-6 is responsible for Nox2 induction in aging brain, and thus here, it is determined whether IL-6 mediates lysosome dysfunction. […] have a targeted deletion of Stat3 in neurons, and pharmacological inhibition of Nox-derived superoxide production can be used to test each of these possibilities. […] This increase occurred not only in microglia, but cortical and hippocampal neurons, and in synaptosomes. To confirm anti-Nox2 Ab specificity, slices and tissue from gp91phox−/− (Nox2−/−) mice were always included as controls.
(Real-time PCR tracks product formation cycle by cycle.)

“Also recorded” adds a separate entry of the source.

lysosomal v-ATPase, sequence (P27449 whole entry): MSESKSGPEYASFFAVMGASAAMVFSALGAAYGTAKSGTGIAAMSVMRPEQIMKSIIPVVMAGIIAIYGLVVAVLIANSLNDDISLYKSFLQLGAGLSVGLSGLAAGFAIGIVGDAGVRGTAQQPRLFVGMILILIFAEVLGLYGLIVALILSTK
lysosomal v-ATPase, sequence (P38606 whole entry partner): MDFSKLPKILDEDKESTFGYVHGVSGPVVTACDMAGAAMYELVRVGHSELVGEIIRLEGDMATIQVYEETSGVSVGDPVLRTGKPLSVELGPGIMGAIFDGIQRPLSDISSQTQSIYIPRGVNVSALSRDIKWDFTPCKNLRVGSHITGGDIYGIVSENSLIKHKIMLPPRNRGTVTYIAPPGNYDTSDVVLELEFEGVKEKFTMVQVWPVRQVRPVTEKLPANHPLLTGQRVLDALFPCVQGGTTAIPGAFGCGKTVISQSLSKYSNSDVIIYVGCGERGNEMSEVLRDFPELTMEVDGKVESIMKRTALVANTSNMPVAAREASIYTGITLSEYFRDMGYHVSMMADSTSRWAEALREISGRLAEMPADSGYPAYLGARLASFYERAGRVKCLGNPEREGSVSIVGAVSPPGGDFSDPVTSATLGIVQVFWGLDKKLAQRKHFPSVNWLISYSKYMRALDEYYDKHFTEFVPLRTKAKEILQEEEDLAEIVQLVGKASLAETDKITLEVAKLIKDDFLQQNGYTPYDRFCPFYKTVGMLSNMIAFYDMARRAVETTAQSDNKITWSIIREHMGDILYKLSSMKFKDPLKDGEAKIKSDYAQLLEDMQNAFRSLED

Take `COc1cc(C(C)=O)ccc1O` [apocynin]: the “size of lysosomes in neurons (lamp1 and CatD immunostaining)” value in experiment [1] is given as “significant normalization (reduction) of intracellular lysosome size; also recorded: significantly reduced the size of lysosomes”. The cargo clearance entry in experiment [2] (apocynin 100 mg/kg/day, as in FIG. 5) is “improved cargo clearance”. The “accumulation of p62 aggregates (number and size of p62-positive aggregates) in hippocampus” value in experiment [2] (female C57BL6 mice, in drinking water from 12-17 mos of age, apocynin 50 mg/kg/day, C3 1 mg/kg/day) was “reduction of both the number, and size of p62-positive aggregates; also recorded: reduces hippocampal aggregates; also recorded: lessons the accumulation of p62 aggregates”. In addition, in experiment [2] (mice treated with apocynin (FIG. 5)), the “undegraded lysosome material throughout brain” value is “robust and highly significant reduction in undegraded lysosome material throughout brain”.
Regarding `CO/C1=C\C(C)=C\[C@@H](C)[C@@H](O)[C@@H](C)C/C(C)=C/C=C/[C@H](OC)[C@@H]([C@@H](C)[C@@H](O)[C@H](C)[C@@]2(O)C[C@@H](O)[C@H](C)[C@@H](C(C)C)O2)OC1=O` [bafilomycin], the lysosome size entry on lysosomal v-ATPase is on record as “rapidly increases lysosome size within hours”.
With “IL-6: inflammatory cytokine interleukin-6”, the “lysosome degradation of proteins, including p62” value in the experiment on mouse cortical cultures is “impairs lysosome degradation of proteins”. In addition, the “induction of Nox2, Nox4 and p22phox in brain” value in the experiment on Nox2, Nox4 and p22phox was “induction of Nox2, Nox4 and p22phox”.

(Values after patent US20220259302A1, “METHODS AND COMPOSITIONS FOR THE IMPROVEMENT OF LYSOSOMAL FUNCTION AND TREATMENT OF NEURODEGENERATIVE DISEASE” (VANDERBILT UNIVERSITY, priority 2017, published 2022).)
